Experimental data: US20230157970A1, “Targeted Therapy of Kidney Fibrosis” (Board of Regents, The University of Texas System, priority 2021, published 2023)

Tests used:
CKD model = experiment: Folic acid CKD model, kidney size after harvesting; assay type: in vivo; conditions: folic acid CKD mice; 10 mg/kg, Navi oral, nanoparticles IV
Experimental: This example was an animal study that created a CKD model by injecting 250 mg/kg folic acid intraperitonially (single injection). After 15 days the treatment started. The mice were divided in 5 groups of untreated, healthy, Fausidil, PLGA-Navitoclax, and PLGA-AT2-Navitoclax. FIG. 5: Figure: Image of the kidney after harvesting. The kidney from different treatment groups: A-Healthy control 510, B-Untreated control 520, C-Navi(10 mg/kg oral) 530, D-Fausidil(10 mg/kg IP) 540, E-PLGA-Navi(10 mg/kg IV) 550, F-PLGA-AT2-Navi(10 mg/kg IV) 560. FIGS. 6A-6B: The size of the untreated kidney shrunk by 42.46% (p-value 0.0062) than the healthy control (A). […] The weight of kidney (B) was also measured in gm and the weight 620 of the kidney treated with PLGA-AT2-Navi.

Bcl2 = experiment: Western blot analysis from the kidney sample, Bcl2; assay type: in vivo, mice; conditions: 10 mg/kg, compared with other groups
Experimental: This example was an animal study that created a CKD model by injecting 250 mg/kg folic acid intraperitonially (single injection). After 15 days the treatment started. The mice were divided in 5 groups of untreated, healthy, Fausidil, PLGA-Navitoclax, and PLGA-AT2-Navitoclax.
FIG. 8: Western blot analysis from the kidney sample. Bcl2 expression was decreased in the sample collected from different group Healthy control, Untreated control, Navi(10 mg/kg oral), Fausidil(10 mg/kg IP), PLGA-Navi(10 mg/kg IV), PLGA-AT2-Navi(10 mg/kg IV) of mice.

[1] = system: apoptosis in kidney section; experiment: TUNEL assay of kidney section; assay type: in vivo, mice
Experimental: This example was an animal study that created a CKD model by injecting 250 mg/kg folic acid intraperitonially (single injection). After 15 days the treatment started. The mice were divided in 5 groups of untreated, healthy, Fausidil, PLGA-Navitoclax, and PLGA-AT2-Navitoclax. FIGS. 9A-9R: Immunohistochemistry (IHC) and TUNEL assay of kidney section. IHC for alpha-SMA protein of different treatment group (A-F). The arrow pointed to the dark dot which represented the alpha-SMA protein. […] The dark dot from FIGS. 9G-9L represented the CTGF protein.

## CC1(C)CCC(c2ccc(Cl)cc2)=C(CN2CCN(c3ccc(C(=O)NS(=O)(=O)c4ccc(N[C@H](CCN5CCOCC5)CSc5ccccc5)c(S(=O)(=O)C(F)(F)F)c4)cc3)CC2)C1 [Navitoclax]
CKD model
  increase of kidney size after treatment: 43.95%
Bcl2
  Bcl2 expression: less expression of bcl2
[1]
  apoptosis (broken nucleus of DNA) by TUNEL: apoptosis was observed
